Data as given in patent publication US9567319B2, “Compound having higher inhibitory activity on protein kinase G and preparation method thereof” (Jenkem Technology Co., Ltd., (Tianjin), priority 2014, dated 2017).
“Also recorded” adds a separate entry of the source.

Tested on: hyperalgesia induced by Freund's complete adjuvant (CFA) in rats
Test: Therapeutic effect on CFA induced hyperalgesia in rats (overall conclusion of Von Frey and weight bearing tests)
Assay type: in vivo, SD rats
Conditions: for anti-hyperalgesia effect at high dose: high dose i.v.: JK-02H 20 mg/kg, 46 and JK-02A 40 mg/kg; for anti-hyperalgesia effect at high dose / anti-hyperalgesia effect at low dose: compared with vehicle; for anti-hyperalgesia effect at low dose: low dose i.v.: JK-02H 5 mg/kg, 46 and JK-02A 10 mg/kg
Method: . A repeat efficacy study was carried out on the same batch of animals with a single-dose treatment followed by a washing-out period. The 14 days in life studies included two stages: a single low dose treatment assessment on the 7th day and then a single high dose treatment test on the 14th day after CFA injection.
On the 7th day after CFA injection, the rats were randomly assigned to respective groups using a computer generated randomization procedure based on the body weight and the baseline values of Von Frey and weight bearing test. Animals received corresponding single dose treatments (vehicle and 3 test articles) on the 7th and 14th days after CFA injection, respectively, and the effect of the test compounds were evaluated. Hyperalgesia of all the study animals was assessed following a single low dose treatment with the test articles on day 7, while a single high dose effect of the test article was evaluated on day 14.
The mechanical hyperalgesia and weight bearing were measured on day 7 and day 14 after CFA injection, followed by administration of control or test articles. Von Frey filaments and weight bearing were measured on all the study animals at three time points on day 7, and four time points on day 14. An extra time point assessment was conducted on day 14, considering the strong analgesic effect of the test articles at a higher dose noticed during the test at the 3th time point.
The effects of compounds 46, JK-02A and JK-02H on CFA induced hyperalgesia in rats were assessed with Von Frey and weight bearing tests following single injection.

Row | Compound | anti-hyperalgesia effect at high dose | anti-hyperalgesia effect at low dose | therapeutic effect when the test time was prolonged to 5 h (high dose (20 mg/kg), 5 h post treatment) | anti-hyperalgesia effect at high dose (hydrochloride) | anti-hyperalgesia effect at low dose (hydrochloride)
1 | CCCOc1ccc(F)c(F)c1C(=O)c1ccc(C(=O)N[C@@H]2CNC[C@H]2NC(=O)c2ccc3cn[nH]c3c2)cc1 [JK-02A] | showed anti-hyperalgesia effects | not significant |  |  | 
2 | Cl.O=C(N[C@@H]1CNC[C@H]1NC(=O)c1ccc2cn[nH]c2c1)c1ccc(C(=O)c2c(OCCOCCO)ccc(F)c2F)cc1 [JK-02H, (3R,4R)-3-{4-[2,3-difluoro-6-(5-hydroxy-3-oxapentan-1-oxy)]benzoyl}benzamido-4-(1H-indazole-6-carboxamido)pyrrolidine hydrochloride] |  |  | very remarkable therapeutic effect | excellent anti-hyperalgesia effect; also recorded: significant anti-hyperalgesia effects | excellent anti-hyperalgesia effect; also recorded: significant anti-hyperalgesia effects
3 | CCCOc1ccc(O)c(F)c1C(=O)c1ccc(C(=O)N[C@@H]2CNC[C@H]2NC(=O)c2ccc3cn[nH]c3c2)cc1 [compound 46] | anti-hyperalgesia effect; also recorded: showed anti-hyperalgesia effects | barely showed any anti-hyperalgesia effect; also recorded: not significant |  |  | 
